Reference: BigSolDB 2.1

[1] = in cyclopentyl methyl ether, 322.85 K

Compound: c1ccc2nc3ccccc3nc2c1
- solubility (mole fraction) (in 1,4-dioxane, 302.55 K): 0.031
- solubility (mole fraction) (in 1,4-dioxane, 305.55 K): 0.033
- solubility (mole fraction) (in 1,4-dioxane, 306.05 K): 0.034
- solubility (mole fraction) (in 1,4-dioxane, 308.85 K): 0.038
- solubility (mole fraction) (in 1,4-dioxane, 312.45 K): 0.04
- solubility (mole fraction) (in 1,4-dioxane, 313.55 K): 0.043
- solubility (mole fraction) (in 1,4-dioxane, 318.75 K): 0.049
- solubility (mole fraction) (in cyclopentyl methyl ether, 301.15 K): 0.022
- solubility (mole fraction) (in cyclopentyl methyl ether, 305.75 K): 0.026
- solubility (mole fraction) (in cyclopentyl methyl ether, 310.05 K): 0.029
- solubility (mole fraction) (in cyclopentyl methyl ether, 314.05 K): 0.033
- solubility (mole fraction) (in cyclopentyl methyl ether, 318.25 K): 0.039
- solubility (mole fraction) (in cyclopentyl methyl ether, 326.85 K): 0.047
- solubility (mole fraction) (in toluene, 282.95 K): 0.015
- solubility (mole fraction) (in toluene, 289.85 K): 0.02
- solubility (mole fraction) (in toluene, 294.25 K): 0.022
- solubility (mole fraction) (in toluene, 297.95 K): 0.025
- solubility (mole fraction) (in toluene, 301.35 K): 0.027
- solubility (mole fraction) (in toluene, 312.55 K): 0.039
- solubility (mole fraction) (in toluene, 318.25 K): 0.046
- solubility (mole fraction) (in toluene, 322.35 K): 0.053
- solubility (mole fraction) (in toluene, 328.75 K): 0.062

Compound: Nc1ccc(C(=O)O)cc1
- solubility (mole fraction) (in 1,4-dioxane, 298.25 K): 0.068
- solubility (mole fraction) (in 1,4-dioxane, 301.25 K): 0.073
- solubility (mole fraction) (in 1,4-dioxane, 304.65 K): 0.08
- solubility (mole fraction) (in 1,4-dioxane, 311.55 K): 0.094
- solubility (mole fraction) (in 1,4-dioxane, 317.75 K): 0.108
- solubility (mole fraction) (in 1,4-dioxane, 320.65 K): 0.116
- solubility (mole fraction) (in 1,4-dioxane, 324.85 K): 0.127
- solubility (mole fraction) (in 1,4-dioxane, 326.35 K): 0.131

Compound: O=C(Oc1ccccc1C(=O)O)c1ccccc1O
- solubility (mole fraction) (in 1,4-dioxane, 324.45 K): 0.263
- solubility (mole fraction) (in 1,4-dioxane, 326.55 K): 0.268
- solubility (mole fraction) (in 1,4-dioxane, 330.35 K): 0.278
- solubility (mole fraction) (in 1,4-dioxane, 332.55 K): 0.284
- solubility (mole fraction) (in 1,4-dioxane, 334.95 K): 0.291
- solubility (mole fraction) (in 1,4-dioxane, 337.35 K): 0.298
- solubility (mole fraction) (in cyclopentyl methyl ether, 319.75 K): 0.148
- solubility (mole fraction) (in cyclopentyl methyl ether, 323.25 K): 0.156
- solubility (mole fraction) (in cyclopentyl methyl ether, 323.95 K): 0.158
- solubility (mole fraction) (in cyclopentyl methyl ether, 325.65 K): 0.16
- solubility (mole fraction) (in cyclopentyl methyl ether, 327.75 K): 0.166
- solubility (mole fraction) (in cyclopentyl methyl ether, 329.95 K): 0.17
- solubility (mole fraction) (in cyclopentyl methyl ether, 333.95 K): 0.176
- solubility (mole fraction) (in toluene, 327.75 K): 0.016
- solubility (mole fraction) (in toluene, 329.25 K): 0.017
- solubility (mole fraction) (in toluene, 333.45 K): 0.019
- solubility (mole fraction) (in toluene, 335.25 K): 0.021
- solubility (mole fraction) (in toluene, 335.95 K): 0.022

Compound: O=C(O)c1ccccc1O
- solubility (mole fraction) (in 1,4-dioxane, 316.85 K): 0.323
- solubility (mole fraction) (in 1,4-dioxane, 321.55 K): 0.337
- solubility (mole fraction) (in 1,4-dioxane, 325.55 K): 0.35
- solubility (mole fraction) (in 1,4-dioxane, 330.85 K): 0.365
- solubility (mole fraction) (in cyclopentyl methyl ether, 316.75 K): 0.252
- solubility (mole fraction) [1]: 0.264
- solubility (mole fraction) (in cyclopentyl methyl ether, 330.55 K): 0.28
- solubility (mole fraction) (in cyclopentyl methyl ether, 333.05 K): 0.289
- solubility (mole fraction) (in cyclopentyl methyl ether, 337.25 K): 0.299
- solubility (mole fraction) (in toluene, 305.65 K): 0.007
- solubility (mole fraction) (in toluene, 314.15 K): 0.011
- solubility (mole fraction) (in toluene, 323.45 K): 0.017
- solubility (mole fraction) (in toluene, 326.85 K): 0.019
- solubility (mole fraction) (in toluene, 329.05 K): 0.021
- solubility (mole fraction) (in toluene, 332.25 K): 0.025
- solubility (mole fraction) (in toluene, 333.35 K): 0.027

Compound: NC(=O)N1c2ccccc2C=Cc2ccccc21
- solubility (mole fraction) (in 1,4-dioxane, 310.35 K): 0.022
- solubility (mole fraction) (in 1,4-dioxane, 319.95 K): 0.032
- solubility (mole fraction) (in 1,4-dioxane, 323.55 K): 0.036
- solubility (mole fraction) (in 1,4-dioxane, 327.95 K): 0.043
- solubility (mole fraction) (in 1,4-dioxane, 329.75 K): 0.047
- solubility (mole fraction) (in 1,4-dioxane, 332.45 K): 0.052
- solubility (mole fraction) (in 1,4-dioxane, 332.95 K): 0.054
- solubility (mole fraction) (in cyclopentyl methyl ether, 308.15 K): 0.002
- solubility (mole fraction) (in cyclopentyl methyl ether, 315.15 K): 0.002
- solubility (mole fraction) (in cyclopentyl methyl ether, 323.75 K): 0.003
- solubility (mole fraction) (in cyclopentyl methyl ether, 331.45 K): 0.004
- solubility (mole fraction) (in cyclopentyl methyl ether, 332.45 K): 0.004
- solubility (mole fraction) (in toluene, 301.85 K): 0.001
- solubility (mole fraction) (in toluene, 313.95 K): 0.002
- solubility (mole fraction) (in toluene, 319.65 K): 0.003
- solubility (mole fraction) (in toluene, 325.35 K): 0.004
- solubility (mole fraction) (in toluene, 328.55 K): 0.004
- solubility (mole fraction) (in toluene, 332.15 K): 0.005
- solubility (mole fraction) (in toluene, 335.35 K): 0.006

Compound: NC(=O)c1ccncc1
- solubility (mole fraction) (in 1,4-dioxane, 298.55 K): 0.014
- solubility (mole fraction) (in 1,4-dioxane, 301.45 K): 0.015
- solubility (mole fraction) (in 1,4-dioxane, 303.15 K): 0.016
- solubility (mole fraction) (in 1,4-dioxane, 305.05 K): 0.017
- solubility (mole fraction) (in 1,4-dioxane, 306.45 K): 0.018
- solubility (mole fraction) (in 1,4-dioxane, 308.25 K): 0.019
- solubility (mole fraction) (in 1,4-dioxane, 309.15 K): 0.02
- solubility (mole fraction) (in 1,4-dioxane, 309.35 K): 0.02
- solubility (mole fraction) (in 1,4-dioxane, 312.15 K): 0.023
- solubility (mole fraction) (in 1,4-dioxane, 314.05 K): 0.024
- solubility (mole fraction) (in 1,4-dioxane, 315.35 K): 0.026
- solubility (mole fraction) (in 1,4-dioxane, 319.45 K): 0.028
- solubility (mole fraction) (in 1,4-dioxane, 325.55 K): 0.036

Compound: NC(=O)c1cccnc1
- solubility (mole fraction) (in 1,4-dioxane, 307.25 K): 0.025
- solubility (mole fraction) (in 1,4-dioxane, 309.95 K): 0.027
- solubility (mole fraction) (in 1,4-dioxane, 311.55 K): 0.029
- solubility (mole fraction) (in 1,4-dioxane, 313.35 K): 0.031
- solubility (mole fraction) (in 1,4-dioxane, 315.45 K): 0.033

Compound: O=C(O)c1cccc(O)c1
- solubility (mole fraction) (in 1,4-dioxane, 305.35 K): 0.188
- solubility (mole fraction) (in 1,4-dioxane, 308.85 K): 0.194
- solubility (mole fraction) (in 1,4-dioxane, 310.85 K): 0.197
- solubility (mole fraction) (in 1,4-dioxane, 312.95 K): 0.204
- solubility (mole fraction) (in 1,4-dioxane, 313.05 K): 0.203
- solubility (mole fraction) (in 1,4-dioxane, 316.75 K): 0.211
- solubility (mole fraction) (in 1,4-dioxane, 318.75 K): 0.214
- solubility (mole fraction) (in 1,4-dioxane, 321.45 K): 0.219
- solubility (mole fraction) (in 1,4-dioxane, 325.35 K): 0.227

Compound: Nc1ccccc1C(=O)O
- solubility (mole fraction) (in 1,4-dioxane, 295.65 K): 0.251
- solubility (mole fraction) (in 1,4-dioxane, 304.55 K): 0.275
- solubility (mole fraction) (in 1,4-dioxane, 308.35 K): 0.287
- solubility (mole fraction) (in 1,4-dioxane, 320.85 K): 0.334
- solubility (mole fraction) (in 1,4-dioxane, 324.85 K): 0.338
- solubility (mole fraction) (in cyclopentyl methyl ether, 297.85 K): 0.137
- solubility (mole fraction) (in cyclopentyl methyl ether, 308.45 K): 0.155
- solubility (mole fraction) (in cyclopentyl methyl ether, 315.55 K): 0.171
- solubility (mole fraction) (in cyclopentyl methyl ether, 325.25 K): 0.194
- solubility (mole fraction) (in cyclopentyl methyl ether, 334.25 K): 0.223
- solubility (mole fraction) (in toluene, 295.55 K): 0.007
- solubility (mole fraction) (in toluene, 306.95 K): 0.012
- solubility (mole fraction) (in toluene, 308.85 K): 0.013
- solubility (mole fraction) (in toluene, 312.65 K): 0.015
- solubility (mole fraction) (in toluene, 316.75 K): 0.018
- solubility (mole fraction) (in toluene, 322.25 K): 0.024
- solubility (mole fraction) (in toluene, 325.95 K): 0.026
- solubility (mole fraction) (in toluene, 326.05 K): 0.026

Compound: CC(=O)Oc1ccccc1C(=O)O
- solubility (mole fraction) (in 1,4-dioxane, 309.35 K): 0.164
- solubility (mole fraction) (in 1,4-dioxane, 312.05 K): 0.171
- solubility (mole fraction) (in 1,4-dioxane, 315.55 K): 0.183
- solubility (mole fraction) (in 1,4-dioxane, 317.65 K): 0.191
- solubility (mole fraction) (in 1,4-dioxane, 325.75 K): 0.218
- solubility (mole fraction) (in 1,4-dioxane, 330.05 K): 0.236
- solubility (mole fraction) (in 1,4-dioxane, 331.45 K): 0.246
- solubility (mole fraction) (in 1,4-dioxane, 332.55 K): 0.258
- solubility (mole fraction) (in cyclopentyl methyl ether, 313.05 K): 0.055
- solubility (mole fraction) (in cyclopentyl methyl ether, 314.25 K): 0.057
- solubility (mole fraction) (in cyclopentyl methyl ether, 316.35 K): 0.059
- solubility (mole fraction) (in cyclopentyl methyl ether, 319.05 K): 0.064
- solubility (mole fraction) (in cyclopentyl methyl ether, 320.55 K): 0.068
- solubility (mole fraction) [1]: 0.074
- solubility (mole fraction) (in cyclopentyl methyl ether, 325.75 K): 0.079
- solubility (mole fraction) (in toluene, 321.25 K): 0.008
- solubility (mole fraction) (in toluene, 326.65 K): 0.01
- solubility (mole fraction) (in toluene, 327.15 K): 0.011
- solubility (mole fraction) (in toluene, 327.85 K): 0.011
- solubility (mole fraction) (in toluene, 330.15 K): 0.014

Compound: O=C(O)c1ccc([N+](=O)[O-])cc1
- solubility (mole fraction) (in 1,4-dioxane, 296.95 K): 0.036
- solubility (mole fraction) (in 1,4-dioxane, 303.25 K): 0.048
- solubility (mole fraction) (in 1,4-dioxane, 306.25 K): 0.053
- solubility (mole fraction) (in 1,4-dioxane, 310.85 K): 0.062
- solubility (mole fraction) (in 1,4-dioxane, 314.65 K): 0.07
- solubility (mole fraction) (in 1,4-dioxane, 319.35 K): 0.08

Compound: CC(=O)Nc1ccc(O)cc1
- solubility (mole fraction) (in 1,4-dioxane, 334.55 K): 0.037
- solubility (mole fraction) (in 1,4-dioxane, 335.35 K): 0.039
- solubility (mole fraction) (in 1,4-dioxane, 336.65 K): 0.042
- solubility (mole fraction) (in 1,4-dioxane, 336.95 K): 0.042
- solubility (mole fraction) (in 1,4-dioxane, 337.25 K): 0.043
- solubility (mole fraction) (in 1,4-dioxane, 337.85 K): 0.045

Compound: O=C(O)c1ccc(O)cc1
- solubility (mole fraction) (in 1,4-dioxane, 299.65 K): 0.08
- solubility (mole fraction) (in 1,4-dioxane, 304.15 K): 0.088
- solubility (mole fraction) (in 1,4-dioxane, 311.15 K): 0.102
- solubility (mole fraction) (in 1,4-dioxane, 315.75 K): 0.111
- solubility (mole fraction) (in 1,4-dioxane, 319.95 K): 0.119
- solubility (mole fraction) (in 1,4-dioxane, 324.55 K): 0.131
